Source: the kinase profiling compilation of Christmann-Franck et al. (2016)

Columns and labels:
Experiment in all cases: KINOMEscan competition binding
Details in all cases: compound 10.0 µM
STK25 (human) = STK25 (human) (UniProt O00506)
TXK (human) = TXK (human) (UniProt P42681)
PRKACA (human) = PRKACA (human) (UniProt P17612)
TTK (human) = TTK (human) (UniProt P33981)
SLK (human) = SLK (human) (UniProt Q9H2G2)
MYO3A (human) = MYO3A (human) (UniProt Q8NEV4)
[1] = system: RET (human), P07949 [M918T]
INSR (human) = INSR (human) (UniProt P06213)
TNK2 (human) = TNK2 (human) (UniProt Q07912)
PTK6 (human) = PTK6 (human) (UniProt Q13882)
CAMK2B (human) = CAMK2B (human) (UniProt Q13554)
MAP2K3 (human) = MAP2K3 (human) (UniProt P46734)
CDK2 (human) = CDK2 (human) (UniProt P24941)
CDK3 (human) = CDK3 (human) (UniProt Q00526)
PIK3C2B (human) = PIK3C2B (human) (UniProt O00750)
PRKX (human) = PRKX (human) (UniProt P51817)
CLK4 (human) = CLK4 (human) (UniProt Q9HAZ1)
EPHA8 (human) = EPHA8 (human) (UniProt P29322)
MYLK3 (human) = MYLK3 (human) (UniProt Q32MK0)
MERTK (human) = MERTK (human) (UniProt Q12866)
MYO3B (human) = MYO3B (human) (UniProt Q8WXR4)
[2] = system: FLT3 (human), P36888 [D835H]
PI4KB (human) = PI4KB (human) (UniProt Q9UBF8)
DAPK1 (human) = DAPK1 (human) (UniProt P53355)
RPS6KA6 KD1 (human) = RPS6KA6 KD1 (human) (UniProt Q9UK32)
PAK3 (human) = PAK3 (human) (UniProt O75914)
ANKK1 (human) = ANKK1 (human) (UniProt Q8NFD2)
PHKG2 (human) = PHKG2 (human) (UniProt P15735)
MAP3K2 (human) = MAP3K2 (human) (UniProt Q9Y2U5)
CSNK1G1 (human) = CSNK1G1 (human) (UniProt Q9HCP0)
WEE1 (human) = WEE1 (human) (UniProt P30291)
MAP4K1 (human) = MAP4K1 (human) (UniProt Q92918)
CHUK (human) = CHUK (human) (UniProt O15111)
MAP4K4 (human) = MAP4K4 (human) (UniProt O95819)
NEK1 (human) = NEK1 (human) (UniProt Q96PY6)
LATS1 (human) = LATS1 (human) (UniProt O95835)
[3] = target: TYK2 JH1 catalytic (human) (UniProt P29597)
PRKCI (human) = PRKCI (human) (UniProt P41743)
TRPM6 (human) = TRPM6 (human) (UniProt Q9BX84)
CSNK1A1 (human) = CSNK1A1 (human) (UniProt P48729)

Chain of CAMK2B (human) (Q13554 whole entry, looked up): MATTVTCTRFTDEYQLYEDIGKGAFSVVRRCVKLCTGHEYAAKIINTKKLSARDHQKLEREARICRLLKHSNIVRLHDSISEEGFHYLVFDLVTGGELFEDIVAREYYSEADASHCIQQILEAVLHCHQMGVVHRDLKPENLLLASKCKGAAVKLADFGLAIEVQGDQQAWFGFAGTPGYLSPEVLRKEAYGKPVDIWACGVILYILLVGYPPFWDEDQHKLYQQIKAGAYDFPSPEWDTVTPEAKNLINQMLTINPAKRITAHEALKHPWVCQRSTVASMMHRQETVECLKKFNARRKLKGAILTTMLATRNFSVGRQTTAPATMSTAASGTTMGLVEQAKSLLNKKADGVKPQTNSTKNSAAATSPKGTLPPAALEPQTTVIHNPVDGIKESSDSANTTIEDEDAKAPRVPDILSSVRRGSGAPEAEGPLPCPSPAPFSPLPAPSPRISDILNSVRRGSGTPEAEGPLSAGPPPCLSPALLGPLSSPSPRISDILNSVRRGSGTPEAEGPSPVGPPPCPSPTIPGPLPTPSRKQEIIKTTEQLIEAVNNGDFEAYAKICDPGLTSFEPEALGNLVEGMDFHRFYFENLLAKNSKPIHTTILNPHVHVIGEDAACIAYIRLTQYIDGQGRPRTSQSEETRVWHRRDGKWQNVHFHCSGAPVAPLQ
Chain of EPHA8 (human) (P29322 whole entry, looked up): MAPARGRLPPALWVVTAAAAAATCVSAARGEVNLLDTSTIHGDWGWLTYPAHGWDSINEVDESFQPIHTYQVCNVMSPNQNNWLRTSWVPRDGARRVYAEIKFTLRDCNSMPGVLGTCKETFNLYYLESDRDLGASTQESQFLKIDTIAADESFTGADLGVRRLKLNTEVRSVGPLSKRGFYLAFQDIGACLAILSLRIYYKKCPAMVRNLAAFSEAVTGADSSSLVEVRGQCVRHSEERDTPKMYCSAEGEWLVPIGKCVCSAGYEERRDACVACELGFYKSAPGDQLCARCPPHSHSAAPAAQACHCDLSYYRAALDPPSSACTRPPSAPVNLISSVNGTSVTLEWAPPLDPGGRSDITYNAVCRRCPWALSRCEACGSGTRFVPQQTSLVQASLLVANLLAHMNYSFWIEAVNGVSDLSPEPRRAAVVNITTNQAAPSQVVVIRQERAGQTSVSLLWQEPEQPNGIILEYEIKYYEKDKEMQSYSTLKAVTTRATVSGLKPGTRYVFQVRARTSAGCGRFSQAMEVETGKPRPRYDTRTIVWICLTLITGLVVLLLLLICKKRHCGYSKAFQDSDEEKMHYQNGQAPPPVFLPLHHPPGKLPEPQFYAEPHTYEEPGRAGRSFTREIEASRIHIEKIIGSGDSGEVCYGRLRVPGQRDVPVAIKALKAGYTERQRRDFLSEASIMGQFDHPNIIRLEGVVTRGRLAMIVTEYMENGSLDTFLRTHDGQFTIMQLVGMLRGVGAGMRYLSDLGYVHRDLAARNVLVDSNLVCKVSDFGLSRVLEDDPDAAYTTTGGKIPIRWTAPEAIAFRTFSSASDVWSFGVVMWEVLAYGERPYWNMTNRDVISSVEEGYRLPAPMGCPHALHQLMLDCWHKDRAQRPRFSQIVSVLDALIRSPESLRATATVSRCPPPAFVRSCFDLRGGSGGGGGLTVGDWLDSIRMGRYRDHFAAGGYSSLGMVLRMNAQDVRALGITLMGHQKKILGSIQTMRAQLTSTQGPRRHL
Chain of WEE1 (human) (P30291 whole entry, looked up): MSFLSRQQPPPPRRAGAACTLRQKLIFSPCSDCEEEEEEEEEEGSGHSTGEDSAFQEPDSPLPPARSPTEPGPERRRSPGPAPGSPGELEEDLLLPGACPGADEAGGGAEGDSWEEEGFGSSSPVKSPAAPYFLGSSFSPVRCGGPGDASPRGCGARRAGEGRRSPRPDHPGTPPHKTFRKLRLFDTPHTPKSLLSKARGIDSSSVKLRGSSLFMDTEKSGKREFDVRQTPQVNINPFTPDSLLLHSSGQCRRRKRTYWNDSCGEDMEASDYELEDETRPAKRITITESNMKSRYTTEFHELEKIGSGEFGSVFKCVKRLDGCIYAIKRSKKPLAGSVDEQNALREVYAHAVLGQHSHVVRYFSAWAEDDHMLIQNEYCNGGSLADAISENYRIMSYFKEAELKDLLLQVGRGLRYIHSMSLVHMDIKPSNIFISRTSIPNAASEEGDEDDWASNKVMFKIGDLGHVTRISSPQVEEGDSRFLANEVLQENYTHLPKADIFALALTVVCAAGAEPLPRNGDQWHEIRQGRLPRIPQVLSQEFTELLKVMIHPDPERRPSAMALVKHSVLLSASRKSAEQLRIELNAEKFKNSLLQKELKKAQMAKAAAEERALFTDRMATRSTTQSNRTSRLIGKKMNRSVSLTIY
Chain of DAPK1 (human) (P53355 whole entry, looked up): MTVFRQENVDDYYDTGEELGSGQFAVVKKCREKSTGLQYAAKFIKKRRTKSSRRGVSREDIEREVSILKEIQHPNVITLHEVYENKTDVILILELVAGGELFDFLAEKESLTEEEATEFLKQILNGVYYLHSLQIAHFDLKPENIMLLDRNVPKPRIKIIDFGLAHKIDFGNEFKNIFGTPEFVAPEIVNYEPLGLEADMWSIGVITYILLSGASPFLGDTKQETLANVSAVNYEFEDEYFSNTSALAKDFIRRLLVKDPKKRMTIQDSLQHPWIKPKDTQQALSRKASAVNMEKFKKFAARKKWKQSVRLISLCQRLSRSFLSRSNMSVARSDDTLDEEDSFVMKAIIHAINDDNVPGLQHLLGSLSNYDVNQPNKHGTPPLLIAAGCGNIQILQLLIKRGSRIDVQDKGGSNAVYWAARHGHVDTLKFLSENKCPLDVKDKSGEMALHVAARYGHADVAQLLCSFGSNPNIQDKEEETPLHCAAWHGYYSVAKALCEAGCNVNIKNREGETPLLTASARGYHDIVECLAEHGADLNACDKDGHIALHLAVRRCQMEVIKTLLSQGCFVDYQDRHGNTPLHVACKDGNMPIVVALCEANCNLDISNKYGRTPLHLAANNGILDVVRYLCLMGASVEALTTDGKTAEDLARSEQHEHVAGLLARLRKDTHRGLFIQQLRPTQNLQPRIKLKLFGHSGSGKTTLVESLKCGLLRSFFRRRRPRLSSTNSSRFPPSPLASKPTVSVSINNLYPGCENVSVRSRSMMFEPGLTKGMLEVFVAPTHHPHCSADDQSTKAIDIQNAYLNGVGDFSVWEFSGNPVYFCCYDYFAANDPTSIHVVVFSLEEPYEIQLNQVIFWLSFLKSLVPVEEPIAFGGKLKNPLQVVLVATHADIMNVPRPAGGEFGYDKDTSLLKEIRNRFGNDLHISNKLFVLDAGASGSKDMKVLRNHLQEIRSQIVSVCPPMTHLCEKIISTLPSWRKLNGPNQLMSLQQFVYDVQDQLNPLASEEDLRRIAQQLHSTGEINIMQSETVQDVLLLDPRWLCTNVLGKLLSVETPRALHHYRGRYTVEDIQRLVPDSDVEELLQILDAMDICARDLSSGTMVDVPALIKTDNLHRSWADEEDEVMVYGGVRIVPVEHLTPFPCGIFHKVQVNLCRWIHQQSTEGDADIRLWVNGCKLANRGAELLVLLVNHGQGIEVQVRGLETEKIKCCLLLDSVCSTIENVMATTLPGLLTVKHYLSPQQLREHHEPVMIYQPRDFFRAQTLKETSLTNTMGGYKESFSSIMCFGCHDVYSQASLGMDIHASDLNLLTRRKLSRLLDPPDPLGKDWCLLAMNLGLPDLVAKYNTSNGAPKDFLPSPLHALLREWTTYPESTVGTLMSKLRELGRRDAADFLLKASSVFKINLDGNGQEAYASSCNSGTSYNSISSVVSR
Chain of RET (human), P07949 [M918T] (P07949 whole entry M918T, looked up): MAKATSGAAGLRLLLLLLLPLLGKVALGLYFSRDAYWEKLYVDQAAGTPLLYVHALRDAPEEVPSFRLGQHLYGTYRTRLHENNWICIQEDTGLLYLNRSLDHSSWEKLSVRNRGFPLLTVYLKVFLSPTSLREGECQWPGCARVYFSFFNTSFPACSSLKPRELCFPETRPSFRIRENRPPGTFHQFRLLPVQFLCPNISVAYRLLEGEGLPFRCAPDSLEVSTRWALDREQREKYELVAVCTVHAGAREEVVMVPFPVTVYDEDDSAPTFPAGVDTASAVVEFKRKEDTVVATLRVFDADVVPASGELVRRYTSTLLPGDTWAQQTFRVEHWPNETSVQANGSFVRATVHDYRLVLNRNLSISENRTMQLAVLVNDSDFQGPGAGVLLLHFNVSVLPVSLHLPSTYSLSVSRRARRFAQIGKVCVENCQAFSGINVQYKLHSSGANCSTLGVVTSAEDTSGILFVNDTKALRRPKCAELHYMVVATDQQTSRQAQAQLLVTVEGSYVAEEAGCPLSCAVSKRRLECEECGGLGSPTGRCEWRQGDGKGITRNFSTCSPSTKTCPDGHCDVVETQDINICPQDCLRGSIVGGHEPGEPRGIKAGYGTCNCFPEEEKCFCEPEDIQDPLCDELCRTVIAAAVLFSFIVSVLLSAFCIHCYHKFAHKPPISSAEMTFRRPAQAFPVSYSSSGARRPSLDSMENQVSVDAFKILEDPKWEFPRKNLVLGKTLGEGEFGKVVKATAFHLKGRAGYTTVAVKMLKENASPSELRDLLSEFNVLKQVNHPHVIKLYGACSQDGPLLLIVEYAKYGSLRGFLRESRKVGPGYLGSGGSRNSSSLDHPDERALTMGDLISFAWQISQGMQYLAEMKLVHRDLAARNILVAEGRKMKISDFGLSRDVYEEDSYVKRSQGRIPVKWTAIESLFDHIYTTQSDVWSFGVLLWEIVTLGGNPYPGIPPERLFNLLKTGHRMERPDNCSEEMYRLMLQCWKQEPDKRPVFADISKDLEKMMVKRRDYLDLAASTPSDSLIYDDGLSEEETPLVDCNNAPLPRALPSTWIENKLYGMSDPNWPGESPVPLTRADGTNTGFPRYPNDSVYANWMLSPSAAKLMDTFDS

kinase still bound, per cent of control (STK25 (human)) [%] | kinase still bound, per cent of control (TXK (human)) [%] | kinase still bound, per cent of control (PRKACA (human)) [%] | kinase still bound, per cent of control (TTK (human)) [%] | kinase still bound, per cent of control (SLK (human)) [%] | kinase still bound, per cent of control (MYO3A (human)) [%] | kinase still bound, per cent of control [1] [%] | kinase still bound, per cent of control (INSR (human)) [%] | kinase still bound, per cent of control (TNK2 (human)) [%] | kinase still bound, per cent of control (PTK6 (human)) [%] | kinase still bound, per cent of control (CAMK2B (human)) [%] | kinase still bound, per cent of control (MAP2K3 (human)) [%] | kinase still bound, per cent of control (CDK2 (human)) [%] | kinase still bound, per cent of control (CDK3 (human)) [%] | kinase still bound, per cent of control (PIK3C2B (human)) [%] | kinase still bound, per cent of control (PRKX (human)) [%] | kinase still bound, per cent of control (EPHA8 (human)) [%] | kinase still bound, per cent of control (MYO3B (human)) [%] | kinase still bound, per cent of control (DAPK1 (human)) [%] | kinase still bound, per cent of control (PAK3 (human)) [%] | Compound | further results
100 | 100 | 100 | 26 | 100 | 100 | 100 | 100 | 3.2 | 7.6 | 100 | 100 | 100 | 100 | 100 | 100 | 100 | 100 | 100 | 100 | COc1cc(N2CCN(C)CC2)ccc1Nc1ncc2c(n1)N(C)c1ccccc1C(=O)N2C | kinase still bound, per cent of control (CLK4 (human)): 100%; kinase still bound, per cent of control (MYLK3 (human)): 100%; kinase still bound, per cent of control (MERTK (human)): 100%; kinase still bound, per cent of control [2]: 100%; kinase still bound, per cent of control (PI4KB (human)): 100%; kinase still bound, per cent of control (RPS6KA6 KD1 (human)): 100%; kinase still bound, per cent of control (ANKK1 (human)): 100%; kinase still bound, per cent of control (PHKG2 (human)): 29%; kinase still bound, per cent of control (MAP3K2 (human)): 32%; kinase still bound, per cent of control (CSNK1G1 (human)): 100%; kinase still bound, per cent of control (WEE1 (human)): 100%; kinase still bound, per cent of control (MAP4K1 (human)): 100%; kinase still bound, per cent of control (CHUK (human)): 100%; kinase still bound, per cent of control (MAP4K4 (human)): 100%; kinase still bound, per cent of control (NEK1 (human)): 100%; kinase still bound, per cent of control (LATS1 (human)): 100%; kinase still bound, per cent of control [3]: 100%
100 | 100 | 100 | 100 | 100 | 100 | 100 | 100 | 100 | 100 | 100 | 100 | 100 | 100 | 100 | 100 | 100 | 100 | 100 | 100 | CCN(CC)CCCCNc1ncc2c(n1)N(C)C(=O)N(c1c(Cl)c(OC)cc(OC)c1Cl)C2 | kinase still bound, per cent of control (CLK4 (human)): 100%; kinase still bound, per cent of control (MYLK3 (human)): 100%; kinase still bound, per cent of control (MERTK (human)): 100%; kinase still bound, per cent of control [2]: 100%; kinase still bound, per cent of control (PI4KB (human)): 100%; kinase still bound, per cent of control (RPS6KA6 KD1 (human)): 100%; kinase still bound, per cent of control (ANKK1 (human)): 100%; kinase still bound, per cent of control (PHKG2 (human)): 100%; kinase still bound, per cent of control (MAP3K2 (human)): 6.8%; kinase still bound, per cent of control (CSNK1G1 (human)): 100%; kinase still bound, per cent of control (WEE1 (human)): 100%; kinase still bound, per cent of control (MAP4K1 (human)): 100%; kinase still bound, per cent of control (CHUK (human)): 100%; kinase still bound, per cent of control (MAP4K4 (human)): 100%; kinase still bound, per cent of control (NEK1 (human)): 100%; kinase still bound, per cent of control (LATS1 (human)): 100%; kinase still bound, per cent of control [3]: 100%
100 | 100 | 100 | 100 | 100 | 100 | 100 | 100 | 100 | 100 | 100 | 100 | 100 | 100 | 22 | 100 | 100 | 100 | 100 | 100 | CS(=O)(=O)N1CCN(Cc2cc3nc(-c4cccc5[nH]ncc45)nc(N4CCOCC4)c3s2)CC1 | kinase still bound, per cent of control (MYLK3 (human)): 100%; kinase still bound, per cent of control (MERTK (human)): 100%; kinase still bound, per cent of control [2]: 100%; kinase still bound, per cent of control (PI4KB (human)): 100%; kinase still bound, per cent of control (RPS6KA6 KD1 (human)): 100%; kinase still bound, per cent of control (ANKK1 (human)): 100%; kinase still bound, per cent of control (PHKG2 (human)): 100%; kinase still bound, per cent of control (MAP3K2 (human)): 100%; kinase still bound, per cent of control (CSNK1G1 (human)): 100%; kinase still bound, per cent of control (WEE1 (human)): 100%; kinase still bound, per cent of control (MAP4K1 (human)): 100%; kinase still bound, per cent of control (CHUK (human)): 100%; kinase still bound, per cent of control (MAP4K4 (human)): 100%; kinase still bound, per cent of control (NEK1 (human)): 100%; kinase still bound, per cent of control (LATS1 (human)): 100%; kinase still bound, per cent of control [3]: 100%

Compound | kinase still bound, per cent of control (STK25 (human)) [%] | kinase still bound, per cent of control (TXK (human)) [%] | kinase still bound, per cent of control (PRKACA (human)) [%] | kinase still bound, per cent of control (TTK (human)) [%] | kinase still bound, per cent of control (SLK (human)) [%] | kinase still bound, per cent of control (MYO3A (human)) [%] | kinase still bound, per cent of control [1] [%] | kinase still bound, per cent of control (INSR (human)) [%] | kinase still bound, per cent of control (TNK2 (human)) [%] | kinase still bound, per cent of control (PTK6 (human)) [%] | kinase still bound, per cent of control (CAMK2B (human)) [%] | kinase still bound, per cent of control (MAP2K3 (human)) [%] | kinase still bound, per cent of control (CDK2 (human)) [%] | kinase still bound, per cent of control (CDK3 (human)) [%] | kinase still bound, per cent of control (PIK3C2B (human)) [%] | kinase still bound, per cent of control (PRKX (human)) [%] | kinase still bound, per cent of control (EPHA8 (human)) [%] | kinase still bound, per cent of control (MYO3B (human)) [%] | kinase still bound, per cent of control (DAPK1 (human)) [%] | kinase still bound, per cent of control (PAK3 (human)) [%] | further results
CNC(=O)c1cc(Oc2ccc(NC(=O)Nc3ccc(Cl)c(C(F)(F)F)c3)cc2)ccn1 | 80 | 77 | 63 | 15 | 15 | 67 | 0.1 | 100 | 96 | 100 | 84 | 97 | 33 | 52 | 92 | 100 | 3.9 | 28 | 99 | 40 | kinase still bound, per cent of control (PRKCI (human)): 100%; kinase still bound, per cent of control (CLK4 (human)): 52%; kinase still bound, per cent of control (TRPM6 (human)): 100%; kinase still bound, per cent of control (ANKK1 (human)): 100%; kinase still bound, per cent of control (PHKG2 (human)): 100%; kinase still bound, per cent of control (MAP3K2 (human)): 100%; kinase still bound, per cent of control (CSNK1G1 (human)): 100%; kinase still bound, per cent of control (WEE1 (human)): 100%; kinase still bound, per cent of control (MAP4K1 (human)): 41%; kinase still bound, per cent of control (CHUK (human)): 81%; kinase still bound, per cent of control (MAP4K4 (human)): 18%; kinase still bound, per cent of control (NEK1 (human)): 88%; kinase still bound, per cent of control (LATS1 (human)): 79%; kinase still bound, per cent of control (CSNK1A1 (human)): 100%; kinase still bound, per cent of control [3]: 70%
